According to US20260193242A1, “USEFUL COMPOUNDS FOR MODULATING INFLAMMATION” (FLAGSHIP PIONEERING INNOVATIONS VI, LLC, priority 2022, published 2026):

How the values were obtained:
[1] = test system: R848-driven NFκB reporter (SEAP) in THP-1 cells; assay: TLR7/8 (R848) stimulated NFκB reporter gene assay in THP1-Dual cells; assay type: cell-based; conditions: Homo sapiens, THP-1, 10 μM compound, 1 μM R848, THP1-Dual cells; read-out: R848-driven NFκB reporter gene assay (Percent inhibition at 10 μM)
Experimental: Compounds described herein are added to the human leukemic monocyte-like cell line THP-1 for bioactivity assessment. THP1-Dual cells (InvivoGen, San Diego, CA) feature the Lucia gene, a secreted luciferase reporter gene, under the control of an ISG54 minimal promoter in conjunction with five IFN-stimulated response elements. THP1-Dual cells also express a secreted embryonic alkaline phosphatase (SEAP) reporter gene driven by an IFN-β minimal promoter fused to five copies of the NF-κB consensus transcriptional response element and three copies of the c-Rel binding site. As a result, THP1-Dual cells allow the simultaneous study of the NF-κB pathway, by monitoring the activity of SEAP, and the IRF pathway, by assessing the activity of Lucia luciferase.
THP-1 dual reporter cells were grown in RPMI 1640 culture medium with 2 mM L-glutamine, 25 mM HEPES, 10% heat-inactivated fetal bovine serum, 100 μg/ml Normocin antibiotic (InvivoGen), Pen-Strep antibiotic (100 U/ml-100 μg/ml, InvivoGen). On the day of the assay, cells were seeded in a 384 flat-bottom well plate at 25,000 cells/well and incubated for 2 hours. Cells were then incubated with 10 μM of the compounds described herein or with 1 μM of IKK-16 (Selleck), a potent inhibitor of IκB kinases (IKKs) or with DMSO (vehicle control) for 2 hours, followed by the addition of the synthetic TLR7/8 agonist R848 at 1 μM and incubation for 16 hours. After incubation was concluded, the cultures supernatants were collected and IRF related activity was assessed by measurement of the Lucia luciferase, using Quanti-Luc assay (InvivoGen). NF-κB pathway activity was assessed by quantifying SEAP using Quanti-Blue assay (InvivoGen).

[2] = test system: TNBS-induced colitis, Balb/c mice; assay: TNBS-induced model of colitis in mice, dosing from day 2, therapeutic mode; assay type: in vivo
Experimental: Female Balb/c mice aged 8 weeks and weighing 18-20 g were housed under standard conditions. The mice were divided into groups with 8-10 mice in each group by body weight. Mice in sham group received intracolonic injection with 50% ethanol (0.1 mL) at day 0, whereas mice in other Trinitrobenzene sulfonic acid (TNBS) colitis model groups received intracolonic injection of 2% TNBS solution in ethanol (0.1 mL) at day 0. The reference compound Mesalazine (Selleck) and test articles described here were dosed from day-1 to day 6. Day 6 was the endpoint, and samples were immediately harvested for the last endpoint. Mesalazine was dissolved in distilled water (pH 7.0) and test articles were dissolved in Phosal 50 PG for delivery by oral gavage.
Body weight and Disease Activity Index (DAI) scores were recorded daily to assess the colitis. DAI score was the sum of the weight loss score, stool score and bleeding sub-scores. A blinded scoring system was employed to assess the colitis. The DAI scorer blinded to the group information and animal ID was responsible for the stool consistency and bleeding evaluations. If there was no blood visible with naked eyes, the Fecal occult blood (FOB) test was performed with a fecal occult blood test strip (the improved pyramidon method).
Colon tissue morphology, damage and healing were assessed by histopathology. The colons were harvested, mesentery and adipose tissue were carefully removed, and internal contents were removed by rinsing with cold PBS. The colons were Swiss-rolled and fixed in neutralized paraformaldehyde followed by H&E staining. Clinical pathologists reviewed the H&E staining and scored blinded with animal ID. The pathological scoring standards were: crypt architecture (normal, 0-severe crypt distortion with loss of entire crypts, 3), degree of inflammatory cell infiltration (normal, 0-dense inflammatory infiltrate, 3), muscle thickening (base of crypt sits on the muscularis mucosae, 0-marked muscle thickening present, 3), goblet cell depletion (absent, 0-present, 1) and crypt abscess (absent, 0-present, 1).
The data was compared by ANOVA with post-hoc Dunnett's multiple comparisons test using Graph Pad Prism 7.0 software (San Diego, CA, USA). P-value<0.05 was considered as statistically significant difference. For pairwise comparison of histology scores and cytokines, unpaired t-test was used to calculate statistical significance. Data was expressed as mean±standard error of mean. In figures, statistical significance is denoted by asterisks: *p<0.05 **p<0.01 ***p<0.005, ****p<0.0001.
Procedures were identical to those in Example 26, except that dosing of the compounds described herein, as well as the positive control mesalamine, began on the second day after TNBS administration, as diagrammed in FIG. 18. Animals in this scenario have developed colitis symptoms before administration of test articles. This is more similar to the clinical scenario with patients with inflammatory bowel disorder presenting with symptoms. For this reason, we refer to these conditions as “therapeutic mode”.

[3] = test system: LPS induced septic shock, C57/B6L mice; assay: LPS induced septic shock model in mice; assay type: in vivo; conditions: 30 mg/kg PO in Phosal 50, 30 min before LPS 1 mg/kg, plasma 2 hours after LPS, vs vehicle
Experimental: In the LPS induced septic shock model in mice, the TLR4 agonist LPS is injected into the peritoneal cavity of mice, inducing production of pro-inflammatory cytokines that can be measured in blood two hours later (FIG. 2).
Female C57/B6L mice, 5 mice in each group, were injected with LPS (1 mg/kg) to induce septic shock 30 minutes after oral administration of compounds described herein (formulated in Phosal 50) or the controls dexamethasone (formulated in saline), a corticosteroid, and MCC950 (formulated in 0.5% methylcellulose), an inflammasome inhibitor. The mice were euthanized 2 hours after LPS stimulation, and the whole blood was drawn, processed to plasma, and snap frozen. Cytokine levels in plasma were determined by cytometric bead array assay.

[4] = 30 mg/kg PO, QD, dosing from day 2
[5] = 30 mg/kg PO, QD, dosing from day 2, vs Vehicle group

Structure (SMILES): CN1[C@@H](C(=O)O)CC[C@H]1[C@@H]1CSC(c2ccccc2O)=N1 [Compound I-4, (2R,5S)-5-((R)-2-(2-hydroxyphenyl)-4,5-dihydrothiazol-4-yl)-1-methylpyrrolidine-2-carboxylic acid]
- inhibition at 10 µM [1]: ≥ 50%
- Disease Activity Index (DAI) scores [2, 4]: improvement
- body weight (% initial weight) recovery [2, 4]: faster recovery rate
- total histology scores [2, 4]: lower
- IL-1B in plasma [2, 5]: decreased
- IL-6 in plasma [2, 5]: decreased
- colon recovery and mucosal healing ([2]; therapeutic mode): promoted the colon recovery and mucosal healing
- IFNγ in plasma [3]: statistically significant decreases
- IL-12p70 in plasma [3]: statistically significant decreases
- TNFα in plasma [3]: statistically significant decreases
